According to ChEMBL document CHEMBL1151339, “Antitumor agents from bohemic acid complex, III. The isolation of marcellomycin, musettamycin, rudolphomycin, mimimycin, collinemycin, alcindoromycin, and bohemamine” (J Nat Prod, 1980):
Converted amounts (≈) assume the structure as drawn.

Assays:
Mus musculus [1] = assay: Toxicity in BDF1 mouse xenografted with mouse L1210 cells assessed as survival at 6.4 mg/kg, ip after 5 days; format: organism-based; parameters: dose 6.4 mg/kg, route intraperitoneal; conditions: in vivo, 120 h
Mus musculus [2] = assay: Toxicity in BDF1 mouse xenografted with mouse L1210 cells assessed as survival at 3.2 mg/kg, ip after 5 days; format: organism-based; parameters: dose 3.2 mg/kg, route intraperitoneal; conditions: in vivo, 120 h
Mus musculus [3] = assay: Toxicity in BDF1 mouse xenografted with mouse L1210 cells assessed as survival at 1.6 mg/kg, ip after 5 days; format: organism-based; parameters: dose 1.6 mg/kg, route intraperitoneal; conditions: in vivo, 120 h
Pseudomonas aeruginosa = assay: Antibacterial activity against Pseudomonas aeruginosa A-9843A by 2-fold tube dilution method; format: functional
Enterococcus faecalis = assay: Antibacterial activity against Streptococcus faecalis A20688 by 2-fold tube dilution method; format: functional
Staphylococcus = assay: Antibacterial activity against penicillin resistant Staphylococcus A-9606 by 2-fold tube dilution method; format: functional
Streptococcus pneumoniae = assay: Antibacterial activity against Streptococcus pneumoniae A-9585 by 2-fold tube dilution method; format: functional
Streptococcus pyogenes = assay: Antibacterial activity against Streptococcus pyogenes A-9604 by 2-fold tube dilution method; format: functional
Staphylococcus aureus = assay: Antibacterial activity against Staphylococcus aureus A-9497 by 2-fold tube dilution method; format: functional
Escherichia coli [4] = assay: Antibacterial activity against Escherichia coli A15119 by 2-fold tube dilution method; format: functional
Escherichia coli [5] = assay: Antibacterial activity against Escherichia coli A20341-1 by 2-fold tube dilution method; format: functional
Klebsiella pneumoniae = assay: Antibacterial activity against Klebsiella pneumoniae A15130 by 2-fold tube dilution method; format: functional
Proteus mirabilis = assay: Antibacterial activity against Proteus mirabilis A-9900 by 2-fold tube dilution method; format: functional
Proteus vulgaris = assay: Antibacterial activity against Proteus vulgaris A21559 by 2-fold tube dilution method; format: functional
Serratia marcescens = assay: Antibacterial activity against Serratia marcescens A20019 by 2-fold tube dilution method; format: functional
Enterobacter cloacae = assay: Antibacterial activity against Enterobacter cloacae A-9659 by 2-fold tube dilution method; format: functional
Candida albicans [6] = assay: Antifungal activity against Candida albicans A-9540 by 2-fold tube dilution method; format: functional
Candida albicans [7] = assay: Antifungal activity against Candida albicans A15049 by 2-fold tube dilution method; format: functional
Candida albicans [8] = assay: Antifungal activity against Candida albicans A15050 by 2-fold tube dilution method; format: functional
Candida tropicalis = assay: Antifungal activity against Candida tropicalis A15051 by 2-fold tube dilution method; format: functional
Pichia kudriavzevii = assay: Antifungal activity against Candida krusei A15052 by 2-fold tube dilution method; format: functional
[9] = test system: Trichophyton mentagrophytes; assay: Antifungal activity against Trichophyton mentagrophytes A-9870 by 2-fold tube dilution method; format: functional
Microsporum canis = assay: Antifungal activity against Microsporum canis A-9872 by 2-fold tube dilution method; format: functional
L1210 [10] = assay: Antitumor activity against mouse L1210 cells xenografted in BDF1 mouse assessed as median survival time at 12.8 mg/kg, ip; format: functional; conditions: route intraperitoneal
L1210 [11] = assay: Antitumor activity against mouse L1210 cells xenografted in BDF1 mouse assessed as median survival time at 6.4 mg/kg, ip; format: functional; conditions: route intraperitoneal
L1210 [12] = assay: Antitumor activity against mouse L1210 cells xenografted in BDF1 mouse assessed as median survival time at 3.2 mg/kg, ip; format: functional; conditions: route intraperitoneal
L1210 [13] = assay: Antitumor activity against mouse L1210 cells xenografted in BDF1 mouse assessed as median survival time at 1.6 mg/kg, ip; format: functional; conditions: route intraperitoneal
L1210 [14] = assay: Antitumor activity against mouse L1210 cells xenografted in BDF1 mouse assessed as median survival time at 51.2 mg/kg, ip; format: functional; conditions: route intraperitoneal
L1210 [15] = assay: Antitumor activity against mouse L1210 cells xenografted in BDF1 mouse assessed as median survival time at 25.6 mg/kg, ip; format: functional; conditions: route intraperitoneal
L1210 [16] = assay: Antitumor activity against mouse L1210 cells xenografted in BDF1 mouse at 12.8 mg/kg, ip relative to control; format: functional; conditions: route intraperitoneal
L1210 [17] = assay: Antitumor activity against mouse L1210 cells xenografted in BDF1 mouse at 6.4 mg/kg, ip relative to control; format: functional; conditions: route intraperitoneal
L1210 [18] = assay: Antitumor activity against mouse L1210 cells xenografted in BDF1 mouse at 3.2 mg/kg, ip relative to control; format: functional; conditions: route intraperitoneal
L1210 [19] = assay: Antitumor activity against mouse L1210 cells xenografted in BDF1 mouse at 1.6 mg/kg, ip relative to control; format: functional; conditions: route intraperitoneal
L1210 [20] = assay: Antitumor activity against mouse L1210 cells xenografted in BDF1 mouse at 51.2 mg/kg, ip relative to control; format: functional; conditions: route intraperitoneal
L1210 [21] = assay: Antitumor activity against mouse L1210 cells xenografted in BDF1 mouse at 25.6 mg/kg, ip relative to control; format: functional; conditions: route intraperitoneal
L1210 [22] = assay: Antitumor activity against mouse L1210 cells xenografted in BDF1 mouse assessed as change in tumor average weight at 12.8 mg/kg, ip; format: functional; conditions: route intraperitoneal
L1210 [23] = assay: Antitumor activity against mouse L1210 cells xenografted in BDF1 mouse assessed as change in tumor average weight at 6.4 mg/kg, ip; format: functional; conditions: route intraperitoneal
L1210 [24] = assay: Antitumor activity against mouse L1210 cells xenografted in BDF1 mouse assessed as change in tumor average weight at 3.2 mg/kg, ip; format: functional; conditions: route intraperitoneal
L1210 [25] = assay: Antitumor activity against mouse L1210 cells xenografted in BDF1 mouse assessed as change in tumor average weight at 1.6 mg/kg, ip; format: functional; conditions: route intraperitoneal
L1210 [26] = assay: Antitumor activity against mouse L1210 cells xenografted in BDF1 mouse assessed as change in tumor average weight at 51.2 mg/kg, ip; format: functional; conditions: route intraperitoneal
L1210 [27] = assay: Antitumor activity against mouse L1210 cells xenografted in BDF1 mouse assessed as change in tumor average weight at 25.6 mg/kg, ip; format: functional; conditions: route intraperitoneal
Mus musculus [28] = assay: Toxicity in BDF1 mouse xenografted with mouse L1210 cells assessed as survival at 12.8 mg/kg, ip after 5 days; format: organism-based; parameters: dose 12.8 mg/kg, route intraperitoneal; conditions: in vivo, 120 h

SMILES: CC[C@@]1(O)C[C@H](O[C@H]2C[C@H](N(C)C)[C@H](O[C@H]3C[C@H](O)[C@H](O)[C@@H](C)O3)[C@@H](C)O2)c2c(cc3c(c2O)C(=O)c2c(O)ccc(O)c2C3=O)[C@H]1C(=O)OC [COLLINEMYCIN]
- Activity (Mus musculus [1]): Non-toxic
- Activity (Mus musculus [2]): Non-toxic
- Activity (Mus musculus [3]): Non-toxic
- MIC (Pseudomonas aeruginosa): > 125 µg/mL
- MIC (Enterococcus faecalis): 63 µg/mL (≈ 88 µM)
- MIC (Staphylococcus): 63 µg/mL (≈ 88 µM)
- MIC (Streptococcus pneumoniae): 2 µg/mL (≈ 2.79 µM)
- MIC (Streptococcus pyogenes): 8 µg/mL (≈ 11.2 µM)
- MIC (Staphylococcus aureus): 16 µg/mL (≈ 22.4 µM)
- MIC (Escherichia coli [4]): > 125 µg/mL
- MIC (Escherichia coli [5]): > 125 µg/mL
- MIC (Klebsiella pneumoniae): > 125 µg/mL
- MIC (Proteus mirabilis): > 125 µg/mL
- MIC (Proteus vulgaris): > 125 µg/mL
- MIC (Serratia marcescens): > 125 µg/mL
- MIC (Enterobacter cloacae): > 125 µg/mL
- MIC (Candida albicans [6]): > 16 µg/mL
- MIC (Candida albicans [7]): > 16 µg/mL
- MIC (Candida albicans [8]): > 16 µg/mL
- MIC (Candida tropicalis): > 16 µg/mL
- MIC (Pichia kudriavzevii): > 16 µg/mL
- MIC [9]: > 16 µg/mL
- MIC (Microsporum canis): > 16 µg/mL
- Activity (L1210 [10]): 10 days
- Activity (L1210 [11]): 8 days
- Activity (L1210 [12]): 8 days
- Activity (L1210 [13]): 8 days
- Activity (L1210 [14]): 11 days
- Activity (L1210 [15]): 11 days
- T/C (L1210 [16]): 133%
- T/C (L1210 [17]): 107%
- T/C (L1210 [18]): 107%
- T/C (L1210 [19]): 107%
- T/C (L1210 [20]): 147%
- T/C (L1210 [21]): 147%
- Activity (L1210 [22]): -2.3 g
- Activity (L1210 [23]): -1.2 g
- Activity (L1210 [24]): 1.3 g
- Activity (L1210 [25]): -0.3 g
- Activity (L1210 [26]): -2.5 g
- Activity (L1210 [27]): -4.2 g
- Activity (Mus musculus [28]): Non-toxic
